In publication PMC5733478, “A Non-imaging High Throughput Approach to Chemical Library Screening at the Unmodified Adenosine-A3 Receptor in Living Cells” (Frontiers in Pharmacology, 2017):
Structures can show the parent of a compound that is named as a salt. Where two headings read alike, the source gives them in different places.

Biological target: T1, human A3AR (Homo sapiens, UniProt P0DMS8)
T1 construct: expressed in transfected cells
T1 sequence (P0DMS8 1-318): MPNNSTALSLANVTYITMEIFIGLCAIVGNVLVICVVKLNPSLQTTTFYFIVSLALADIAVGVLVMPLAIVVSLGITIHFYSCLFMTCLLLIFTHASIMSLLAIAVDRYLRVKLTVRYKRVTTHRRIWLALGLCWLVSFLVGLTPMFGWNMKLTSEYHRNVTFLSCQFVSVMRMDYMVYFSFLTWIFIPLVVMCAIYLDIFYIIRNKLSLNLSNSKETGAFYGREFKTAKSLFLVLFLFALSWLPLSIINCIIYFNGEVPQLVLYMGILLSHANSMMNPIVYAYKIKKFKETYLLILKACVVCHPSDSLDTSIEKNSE
Experiment: LOPAC library primary screen: single concentration (10 μM) inhibition of 25 nM CA200645 binding, PHERAstar FS

[1] = compounds tested at 10 µM, % of control wells (1% DMSO and 25 nM CA200645), whole live cells expressing the A3AR, mean ± SD, three experiments in duplicate
[2] = % of control wells (1% DMSO and 25 nM CA200645), compounds at 10 µM, whole live cells expressing the A3AR, mean ± SD, three experiments in duplicate

| Compound | % 25 nM CA200645 binding [%] | other results |
| --- | --- | --- |
| CCN(CC)C(=S)SSC(=S)N(CC)CC [Tetraethylthiuram disulfide] | 88.1 ± 9.2 |  |
| CN1C(=O)CCS(=O)(=O)C1c1ccc(Cl)cc1 (centres unmarked) [Chlormezanone] | 101.4 ± 10.9 |  |
| CCT007093 | 68.4 ± 3.4 |  |
| CC(NCCc1ccc(O)cc1)C(O)c1ccc(O)cc1 (centres unmarked) [Ritodrine hydrochloride] | 99.4 ± 8.5 |  |
| CCCNC(C)C(=O)Nc1ccccc1C (centres unmarked) [Prilocaine hydrochloride] | 106.9 ± 9.7 |  |
| CC(=O)OC[C@H]1O[C@@H]([S-])[C@H](OC(C)=O)[C@@H](OC(C)=O)[C@@H]1OC(C)=O.CCP(CC)CC.[Au+] [Auranofin] | 82.1 ± 31.0 |  |
| Clc1ccc(N2C[C@H]3CC[C@@H](C2)N3)nn1 [DBO-83] | 97.7 ± 11.0 |  |
| c1ccc2c(c1)[I+]c1ccccc1-2 [Diphenyleneiodonium chloride] | 92.7 ± 5.6 |  |
| CN[C@H]1CC[C@@H](c2ccc(Cl)c(Cl)c2)c2ccccc21 [Sertraline hydrochloride] | 101.1 ± 11.7 |  |
| CC(/C=C/c1cccc(Oc2ccc(F)cc2)c1)N(O)C(N)=O (centres unmarked) [BWB70C] | 92.4 ± 13.0 |  |
| C[C@]12CCC(=O)C=C1CC[C@@H]1[C@@H]2CC[C@@]2(C)[C@H]1CC[C@]2(O)C(=O)CO [Cortexolone] |  | % 25 nM CA200645 binding [1]: 110.6 ± 19.2% |
| COc1ccc(C(=O)N2CCCC2=O)cc1 [Aniracetam] | 95.9 ± 3.1 |  |
| Cc1ccc(S(=O)(=O)N[C@@H](Cc2ccccc2)C(=O)CCl)cc1 | 102.0 ± 13.7 |  |
| NCCS(=O)(=O)O [Taurine] |  | % 25 nM CA200645 binding [1]: 106.8 ± 10.4% |
| Br.CCCN(CCC)C1CCc2cccc(O)c2C1 (racemic) [(±)-8-Hydroxy-DPAT hydrobromide] | 98.2 ± 1.8 |  |
| O=C1C(SCCO)=C(SCCO)C(=O)c2ccccc21 [NSC 95397] | 96.3 ± 15.0 |  |
| O=C(C1CCCCC1)N1CC(=O)N2CCc3ccccc3C2C1 (centres unmarked) [Praziquantel] | 100.5 ± 15.0 |  |
| O=C(O)c1cc(=O)c2ccccc2[nH]1 [Kynurenic acid] |  | % 25 nM CA200645 binding [2]: 83.5 ± 10.7% |
| N#CCCN.N#CCCN.O=C(O)/C=C/C(=O)O [3-Aminopropionitrile fumarate] | 91.9 ± 6.3 |  |
| O=[N+]([O-])c1ccc2c(c1)S(=O)(=O)C=C2 [Stattic] | 107.3 ± 19.6 |  |
| CC(C)(C)NCC(O)COc1cccc2[nH]c(=O)[nH]c12.Cl (racemic) [(±)-CGP-12177A hydrochloride] | 114.1 ± 10.3 |  |
| O=C([O-])c1cc2cc(Cc3cccnc3)ccc2o1.[Na+] [Furegrelate sodium] | 89.9 ± 4.6 |  |
| Cc1nc(N=Nc2cc(S(=O)(=O)[O-])c3cc([N+](=O)[O-])cc(S(=O)(=O)[O-])c3c2)c(COP(=O)([O-])[O-])c(C=O)c1O.[Na+].[Na+].[Na+].[Na+] [PPNDS tetrasodium] | 100.4 ± 12.5 |  |
| NC(Cc1ccc(Cl)cc1)C(=O)O (racemic) [(±)-p-Chlorophenylalanine] | 94.9 ± 9.4 |  |

| Compound | % 25 nM CA200645 binding [%] | other results |
| --- | --- | --- |
| LY-367,265 | 64.8 ± 25.8 |  |
| O=C(O)CCC/C=C\C[C@@H]1[C@@H](/C=C/[C@H](O)C2Cc3ccccc3C2)[C@@H](F)C[C@@H]1O [AL-8810] | 75.0 ± 17.3 |  |
| NS(=O)(=O)c1cc2c(cc1Cl)NCNS2(=O)=O [Hydrochlorothiazide] | 95.6 ± 3.9 |  |
| R(-)-Me5 | 100.1 ± 8.0 |  |
| Cc1cccc(/C=C/c2ccccc2)n1 [SIB 1893] | 88.4 ± 9.6 |  |
| Cl.O=C(c1ccc(OCCCc2cnc[nH]2)cc1)C1CC1 [Ciproxifan hydrochloride] | 102.4 ± 6.2 |  |
| COc1ccc(-c2cc3nccn3c(Nc3ncccc3C(N)=O)n2)cc1OC.Cl.O [BAY 61-3606 hydrochloride hydrate] | 83.8 ± 10.8 |  |
| NCCc1c[nH]c2ccccc12 [Tryptamine hydrochloride] | 98.8 ± 5.7 |  |
| O=c1onc2cnc3ccccc3n12 [ODQ] | 93.0 ± 5.7 |  |
| COc1ccc2c(c1)c(CC(=O)O)c(C)n2C(=O)c1ccccc1 | 59.0 ± 9.2 |  |
| trans-(±)-ACPD | 83.6 ± 13.4 |  |
| NC(=O)c1cnccn1 [Pyrazinecarboxamide] | 88.9 ± 26.1 |  |
| CC(C)c1cccc(C(C)C)c1O [Propofol] | 96.0 ± 3.0 |  |
| Fc1ccc2[nH]c(CN3CCN(c4ccccn4)CC3)cc2c1 [CP-226269] | 83.6 ± 17.8 |  |
| NS(=O)(=O)c1cc2c(cc1Cl)NC(C1CC3C=CC1C3)NS2(=O)=O (centres unmarked) [Cyclothiazide] | 93.2 ± 4.7 |  |
| C[N+]1(CCCCC[N+]2(C)CCCC2)CCCC1.O=C([O-])C(O)C(O)C(=O)O.O=C([O-])C(O)C(O)C(=O)O [Pentolinium di[L(+)-tartrate]] | 106.3 ± 2.7 |  |
| C[N+]1(C)C2CCC1CC(OC(=O)c1c[nH]c3ccccc13)C2.[I-] (centres unmarked) | 95.6 ± 4.9 |  |
| CCCn1c(=O)[nH]c(=O)c2nc[nH]c21 [3-n-Propylxanthine] | 101.0 ± 10.1 |  |
| C[N+](C)(C)CCOC(=O)CCC(=O)OCC[N+](C)(C)C [Succinylcholine chloride] | 98.6 ± 15.7 |  |
| COc1ccc2c(c1)c(CC(=O)O)c(C)n2C(=O)c1ccc(Cl)cc1 [Indomethacin] | 72.9 ± 18.3 |  |
| CN1CCN(C2Cc3ccccc3Sc3ccc(Cl)cc32)CC1.O=C(O)/C=C\C(=O)O (racemic) [(±)-Octoclothepin maleate] |  | % 25 nM CA200645 binding (% of control wells (1% DMSO and 25 nM CA200645), compounds at 10 µM, […], mean ± SD, three experiments in duplicate): 83.2 ± 25.2% |
| NC(Cc1cc(O)c(O)cc1O)C(=O)O (racemic) [6-Hydroxy-DL-DOPA] | 69.7 ± 9.9 |  |
| CCCCCCN(CCCCCC)C(=O)Cc1c(-c2ccc(F)cc2)[nH]c2ccccc12 | 88.5 ± 10.2 |  |
| CO[C@H]1O[C@@H]2O[C@@]3(C)CC[C@H]4[C@H](C)CC[C@@H]([C@H]1C)[C@@]24OO3 [Artemether] |  | % 25 nM CA200645 binding [2]: 99.4 ± 9.9% |

| Compound | % 25 nM CA200645 binding [%] | other results |
| --- | --- | --- |
| Cc1[nH]c2ccc(O)cc2c1CCN.O=C(O)/C=C\C(=O)O [2-Methyl-5-hydroxytryptamine maleate] | 104.7 ± 14.7 |  |
| Br.CCCN1CCc2cc(O)cc3c2[C@H]1Cc1ccc(O)c(O)c1-3 | 89.0 ± 14.4 |  |
| O=C(CCCN1CC=C(n2c(=O)[nH]c3ccccc32)CC1)c1ccc(F)cc1 [Droperidol] | 101.2 ± 18.5 |  |
| Nc1ncnc2c1ncn2C1CCCO1 (centres unmarked) [SQ 22536] | 102.7 ± 4.9 |  |
| C[C@]12C=CC(=O)C=C1CC[C@@H]1C2=CC[C@]2(C)[C@@H](C(=O)CN3CCN(c4cc(N5CCCC5)nc(N5CCCC5)n4)CC3)CC[C@@H]12.O=C(O)/C=C\C(=O)O [U-74389G maleate] | 36.9 ± 10.8 |  |
| Nc1nc(SCc2ccc([N+](=O)[O-])cc2)c2ncn([C@@H]3O[C@H](CO)[C@@H](O)[C@H]3O)c2n1 [S-(4-Nitrobenzyl)-6-thioguanosine] | 91.9 ± 3.2 |  |
| Oc1ccc2c3c1O[C@H]1c4[nH]c5ccccc5c4C[C@@]4(O)[C@@H](C2)N(CC2CC2)CC[C@]314 [Naltrindole hydrochloride] | 111.0 ± 9.1 |  |
| CCCN(CCc1ccccc1)C1CCc2c(O)cccc2C1.Cl (racemic) [(±)-PPHT hydrochloride] | 101.7 ± 5.1 |  |
| Cl.c1ccc2nc(C3=NCCN3)ccc2c1 [BU224 hydrochloride] | 100.8 ± 7.2 |  |
| O=C(O)C1=CC(=C(c2ccc(O)c(C(=O)O)c2)c2ccc(O)c(C(=O)O)c2)C=CC1=O [Aurintricarboxylic acid] | 93.7 ± 12.0 |  |
| C#C[C@]1(O)CC[C@H]2[C@@H]3CCC4=Cc5oncc5C[C@]4(C)[C@H]3CC[C@@]21C [Danazol] | 86.4 ± 9.1 |  |
| COc1ccc2cc([C@H](C)C(=O)[O-])ccc2c1.[Na+] [(-)-Naproxen sodium] | 97.8 ± 4.0 |  |
| N[C@@H](Cn1oc(=O)[nH]c1=O)C(=O)O [(+)-Quisqualic acid] | 106.4 ± 10.3 |  |
| Br.Br.CN(C)CCCc1cc(C(=O)Nc2ccc(-c3ccncc3)cc2)ccc1O [GR 55562 dihydrobromide] | 92.8 ± 13.3 |  |
| Clc1cccc(Cl)c1N=C1NCCN1 [Clonidine hydrochloride] | 101.9 ± 9.8 |  |
| N.N.[Cl][Pt][Cl] [Cisplatin] | 69.0 ± 8.2 |  |
| Br.NC1CCc2cc(O)c(O)cc2C1 (centres unmarked) [6,7-ADTN hydrobromide] | 100.4 ± 8.1 |  |
| CN1C[C@H](CNC(=O)OCc2ccccc2)C[C@@H]2c3cccc4c3c(cn4C)C[C@H]21 [Metergoline] | 94.1 ± 8.5 |  |
| CC[C@@H](C(N)=O)N1CCCC1=O [Levetiracetam] | 102.2 ± 9.6 |  |
| OC(CCN1CCCCC1)(c1ccccc1)C1CCCCC1 (centres unmarked) [Trihexyphenidyl hydrochloride] | 99.4 ± 5.7 |  |
| S=C(NC1CCCCC1)N1CCC(c2cnc[nH]2)CC1 [Thioperamide maleate] | 99.7 ± 10.4 |  |
| C[C@]12CC[C@@H]3c4ccc(O)cc4CC[C@H]3[C@@H]1CC[C@@H]2O [beta-Estradiol] | 87.8 ± 13.4 |  |
| NCC(=O)NCCC(c1ccccc1)c1ccccc1 [N-(3,3-Diphenylpropyl)glycinamide] | 98.7 ± 7.8 |  |
